Results reported in patent US20250230226A1, “PLXDC1/PLXDC2 ACTIVATORS AND THEIR USE IN THE TREATMENT OF BLOOD VESSEL DISORDERS” (THE REGENTS OF THE UNIVERSITY OF CALIFORNIA, priority 2019, published 2025).

Tests used:
[1] = tested on: CT26.CL25 colon cancer tumor endothelial cells; experiment: Colon CT26 ex vivo model of tumor angiogenesis; type: cell-based, mouse; conditions: for 48 hrs (morphology observations after 48 hours): Conc. 40 μm; for cytotoxicity at 40 µM: Mus musculus, Endothelial cell, 48 h, read-out: Cell death
Protocol: An ex vivo tumor angiogenesis model was developed to test the efficacy of anti-cancer candidate agents. The following protocol describes the Ex Vivo Tumor Angiogenesis Model.
• 1. The day before the experiment, all necessary tools were sprayed with 70% ethanol and sterilized under UV light overnight, including blade, dissecting and micro-dissecting scissors and […]. 24-well dishes were placed at 4° C. to pre-chill plates and Matrigel was thawed, 24 hours before tumor dissection. • 2. 70% ethanol was sprayed on working bench. Two sterile petri dishes were prepared with 10 ml sterile PBS. The following steps 3 and 4 are necessary for mouse tumor models. For fresh human tumor, steps 3 and 4 are skipped. • 3. The tumor-bearing mice were euthanized. 70% ethanol was sprayed on the mouse and the tumor was removed using sterilized dissecting tools (avoid the fur). The tumor was rinsed in petri dish with sterile PBS to remove ethanol and fur. The tumor was transferred to a new petri dish with PBS for dissection. The dish is placed on ice. • 4. Pre-chilled sterile pipet tips were used to seed regular Matrigel in 24 well plates on ice. Matrigel (30 μl) was dropped in the middle of each well without touching the edge of the well (avoid introducing bubbles if possible). • 5. The tumor was cut in halves using the sterile blade. Healthy tumor tissue that is not necrotic and is within the tumor capsule was identified and isolated. The healthy tumor tissue was cut into small pieces. For instance, a suitable size for the tumor tissue is 0.5 mm (H)×0.5 mm (L)×0.3 mm (D) with a total volume of 0.075 mm^3. • 6. Each tumor piece was gently transferred and embedded in the Matrigel drop in the 24-well plate. The embedded piece was placed in the bottom and middle of each Matrigel drop. The plate was kept on ice all the time. • 7. After seeding the tumor pieces, plates were incubated in a 37° C. cell culture incubator without medium for 10 minutes in order for the Matrigel to solidify. • 8. Endothelial Growth Medium (0.5 ml) was added to each well and incubated at 37° C. with 5% CO2. Treatment was not added until the new endothelial cells was grown out of the tumor or were larger than 3 mm in diameter. This usually takes 4 days for the LL2 Lewis lung cancer model and 7 days for the CT26 colon cancer model. For human tumor models, the growth time is typically 2-3 weeks, depending on the tumor type. Media was changed every 4 days during prolonged culture. Typically, when the tumor tissue grows to 2 mm in diameter, it was good for drug testing. A size of about 3 mm in diameter can make visualization easier. • 9. When the assay was ready to be analyzed for cell death (e.g., 48 hours after drug addition), the dye mixture was prepared by mixing 6 μl of green dye to stain live cells (5 mg/ml Fluorescein diacetate or FDA in DMSO) with 30 μl of red dye (2.5 mg/ml Propidium iodide or PI in PBS) to stain dead cells in an Eppendorf tube. The FDA dye needs to be stored frozen in a −20° C. freezer because it has a labile ester bond. • 10. 1 μl of the dye mixture was added to each well of the 24-well dish. It is usually preferred to do one 24-well dish at a time given the amount of time needed to take pictures (the green dye is not as stable in the cells in the long term). • 11. The dish was gently rocked a few times to mix the dye with the media in the wells and incubate the dish at 37° C. for 10 min (too long incubation can make the green signal too intense). • 12. Each well was washed with 0.5 ml of sterile PBS and then 0.5 ml of phenol red free SFM was added to each well. Alternatively 0.5 ml of regular Endothelial Cell Growth Media can be added to each well if this well needs to be continuously maintained after the experiment. • 13. An inverted microscope using the 2× objective lens was used to observe morphological changes in the experimental wells. • 14. […]

[2] = tested on: LL/2 lung cancer tumor endothelial cells; experiment: Lung LL2 ex vivo model of tumor angiogenesis; type: cell-based, mouse; conditions: for 48 hrs (morphology observations): LL/2 tumor endothelial cells; for Cell death: drug treatment for two days, ratio of red area to total endothelial cell area
Procedure, shortened: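 LL2 mouse tumor fragments (~0.075 mm³) embedded in Matrigel and cultured in endothelial growth medium at 37 °C until endothelial outgrowth (~4 days) before treatment. Cell death assessed e.g. 48 h after drug by fluorescein diacetate (live)/propidium iodide (dead) staining and red/green fluorescence imaging.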

[3] = Mus musculus, Endothelial cell, 48 h, read-out: Cell death

`CCOC(=O)c1ccc2ncc(S(=O)(=O)c3ccc(CC)cc3)c(N3CCC(O)(c4ccc(CC)cc4)CC3)c2c1` [Compound 128] was tested, and the “48 hrs (morphology observations after 48 hours)” value [1] was 0 and the cytotoxicity at 40 µM [1] was 10%.
In the case of `CCOC(=O)c1ccc2ncc(S(=O)(=O)c3ccc(CC)cc3)c(N3CCC(O)(c4cccc(OC)c4)CC3)c2c1` [Compound 149], the “48 hrs (morphology observations after 48 hours)” value [1] is reported as “* (50% or less of cells vesicularize in cell shape)” and the cytotoxicity at 40 µM [1] is reported as 20%.
In the case of `CCCCN(CCCC)c1c(S(=O)(=O)c2ccc(OC)c(OC)c2)cnc2ccc(SC)cc12` [Compound 124], the “48 hrs (morphology observations after 48 hours)” value [1] is reported as 0 and the cytotoxicity at 40 µM [1] is reported as 20%.
For `CCCCOc1ccc(S(=O)(=O)c2cnc3ccc(C(=O)N(CC)CC)cc3c2N2CCCN(C)CC2)cc1` [Compound 199], the “48 hrs (morphology observations)” value ([2]; 40 μm) was 0 and the Cell death ([2]; 40 μm) was 30%.
In the case of `CCc1ccc(S(=O)(=O)c2cnc3ccc(OC(F)(F)F)cc3c2NCc2ccncc2)cc1` [Compound 106], the “48 hrs (morphology observations)” value ([2]; 20 μm) is reported as 0 and the Cell death ([2]; 20 μm) is reported as 5%.
For `CCCCCCCCCCCCCCOc1ccc(S(=O)(=O)c2cnc3ccc([S+](C)[O-])cc3c2N2CCC(N3CCC(N4CCN(C)CC4)CC3)CC2)cc1F` (stereo not shown) [Compound 371], the “48 hrs (morphology observations)” value ([2]; 20 μm) was “*** (more than 50% but less than 100% of endothelial cells vesicularize in cell shape)” and the Cell death ([2]; 20 μm) was 30%.
`CCCCCCCCCCOc1ccc(S(=O)(=O)c2cnc3ccc([S+](C)[O-])cc3c2N2CCC(N3CCC(N4CCCC(O)C4)CC3)CC2)cc1` (stereo not shown) [Compound 288] was tested, and the “48 hrs (morphology observations)” value ([2]; 10 μm) was “*** (more than 50% but less than 100% of endothelial cells vesicularize in cell shape)” and the Cell death ([2]; 10 μm) was 50%.
In the case of `CCCCOc1ccc(S(=O)(=O)c2cnc3ccc(C(=O)NCCO)cc3c2N2CCCN(C)CC2)cc1` [Compound 200], the “48 hrs (morphology observations)” value ([2]; 40 μm) is reported as 0 and the cytotoxicity at 40 µM [2, 3] is reported as 30%.
In the case of `CCOC(=O)c1ccc2ncc(S(=O)(=O)c3ccc(OC)cc3)c(-n3ccnc3)c2c1` [Compound 141], the “48 hrs (morphology observations)” value ([2]; 20 μm) is reported as “**** (100% of endothelial cells vesicularize in cell shape and look flattened in morphology (indicating disintegration of the cell body))” and the Cell death ([2]; 20 μm) is reported as 90%.
`CCc1ccc(S(=O)(=O)c2cnc3ccc(OC(F)(F)F)cc3c2-n2cnnn2)cc1` [Compound 125] was tested, and the “48 hrs (morphology observations)” value ([2]; 20 μm) was “* (50% or less of cells vesicularize in cell shape)” and the cytotoxicity at 20 µM [2, 3] was 10%.
In the case of `COc1ccc(S(=O)(=O)c2cnc3ccc(CC#N)cc3c2N2CCC(N3CCCCC3)CC2)cc1` [Compound 115], the “48 hrs (morphology observations)” value ([2]; 20 μm) is reported as 0 and the cytotoxicity at 20 µM [2, 3] is reported as 10%.
For `CCCCOc1ccc(S(=O)(=O)c2cnc3ccc(S(C)(=O)=O)cc3c2N2CCC(N3CCCCC3)CC2)cc1` [Compound 169], the “48 hrs (morphology observations)” value ([2]; 20 μm) was 0 and the Cell death ([2]; 20 μm) was 40%.
For `CCCCCCCCCCOc1ccc(S(=O)(=O)c2cnc3ccc([S+](C)[O-])cc3c2N2CCC(N3CCC(N4CCCN(C)CC4)CC3)CC2)cc1` (stereo not shown) [Compound 287], the “Cell death, read at 24 hrs” value ([2]; 20 μm, (24 hrs)) was 40% and the “Endothelial cell morphology score at 24 hrs” value ([2]; 20 μm, (24 hrs)) was “* (50% or less of cells vesicularize in cell shape)”.
In the case of `CCCCCCCCCCOc1ccc(S(=O)(=O)c2cnc3ccc([S+](C)[O-])cc3c2N2CCC(N3CCN(C)CC3)CC2)cc1` (stereo not shown) [Compound 264], the “48 hrs (morphology observations)” value ([2]; 10 μm) is reported as “* (50% or less of cells vesicularize in cell shape)” and the Cell death ([2]; 10 μm) is reported as 20%.
`CCc1ccc(S(=O)(=O)c2cnc3ccc(OC(F)(F)F)cc3c2-n2cccn2)cc1` [Compound 109] was tested, and the “48 hrs (morphology observations)” value ([2]; 20 μm) was 0 and the Cell death ([2]; 20 μm) was 0%.
For `CCCCCCCCCCCCCCOc1ccc(S(=O)(=O)c2cnc3ccc([S+](C)[O-])cc3c2N2CCC(N3CCC(N4CCN(CCO)CC4)CC3)CC2)cc1F` (stereo not shown) [Compound 368], the Cell death ([2]; 20 μm) was 20%.
